Laboratory results reported in PubChem BioAssay (NCI).
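Exposure lasted 48 hours, with cells grown in 96-well plates and compounds tested at five concentrations. TGI marks complete inhibition of growth.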

What was measured:
Assay in all cases: DTP human tumour cell line panel, 48 h
SK-OV-3 ovarian = tested on: SK-OV-3 ovarian
HL-60(TB) leukemia = tested on: HL-60(TB) leukemia
SK-MEL-5 melanoma = tested on: SK-MEL-5 melanoma
U251 CNS = tested on: U251 CNS
NCI/ADR-RES ovarian = tested on: NCI/ADR-RES ovarian
BT-549 breast = tested on: BT-549 breast
M14 melanoma = tested on: M14 melanoma
PC-3 prostate = tested on: PC-3 prostate
TK-10 renal = tested on: TK-10 renal
SW-620 colon = tested on: SW-620 colon
A498 renal = tested on: A498 renal

SMILES	TGI (SK-OV-3 ovarian) [µM]	TGI (HL-60(TB) leukemia) [µM]	TGI (SK-MEL-5 melanoma) [µM]	TGI (U251 CNS) [µM]	TGI (NCI/ADR-RES ovarian) [µM]	TGI (BT-549 breast) [µM]	TGI (M14 melanoma) [µM]	TGI (PC-3 prostate) [µM]	TGI (TK-10 renal) [µM]	TGI (SW-620 colon) [µM]	TGI (A498 renal) [µM]
Oc1ccc(-c2nc(-c3cccnc3)c(-c3ccc(Cl)cc3)[nH]2)cc1	26.8	36.7	27.2	28.5	36.9	29	26.1	19.5	26.3	29.9	–
CCN(CC)C(=O)Cn1c(C)cc2ccccc21	> 100	> 100	> 100	> 100	> 100	> 100	> 100	> 100	> 100	> 100	–
CC(C)=CCC/C(C)=C/C=C/C(C)=C/C=C/C(C)=C/C=C/C=C(C)/C=C/C=C(C)/C=C/[C@H]1C(C(C)(C)O)CC[C@]1(C)O (some centres not stated)	> 100	48.9	33.5	47.4	> 100	–	91.1	> 100	> 100	65.8	84.8
O=C(NNC(=S)Nc1cccc(Cl)c1)c1cc(-c2ccccc2)nc2ccccc12	34.5	–	33.2	30.4	56.2	34.3	33.7	29.3	30.8	31.3	–
COc1cc(/C=C2\C(=O)N(c3ccccc3)C(c3ccccc3)S2(=O)=O)cc(OC)c1OC (configuration not stated)	> 100	> 100	> 100	> 100	> 100	> 100	> 100	–	> 100	> 100	> 100
N#CC(NC12CC3CC(CC(C3)C1)C2)c1ccccc1C(F)(F)F (configuration not stated)	–	> 100	> 100	–	–	–	> 100	–	> 100	> 100	–
c1ccc2c(c1)ccn2CCc1c[nH]c2ccccc12	> 10	> 10	> 10	> 10	> 10	> 10	> 10	> 10	> 10	> 10	–
Cc1ccc(SCC(CF)OC(C)n2cnc3c(=O)[nH]c(N)nc32)cc1 (configuration not stated)	> 100	> 100	47.6	> 100	> 100	> 100	> 100	> 100	> 100	> 100	–
Oc1c(CN2CCOCC2)ccc2cccnc12	> 10	–	> 10	> 10	6.6	8.26	> 10	> 10	> 10	> 10	> 10
O=P(Nc1ccc(Cl)cc1)(Oc1ccccc1)N(CCCl)CCCl (configuration not stated)	> 100	–	> 100	> 100	–	–	> 100	–	> 100	> 100	> 100
CCN(CC)CCNc1nc2ccc([N+](=O)[O-])cc2[n+]([O-])n1	–	17.9	22.3	77.2	70.5	> 100	41.2	75.3	> 100	64.1	49.7
Cc1ccc([N+](=O)[O-])cc1S(=O)(=O)Nc1ccc(C2=NNC(c3ccccc3)C2)cc1 (configuration not stated)	58.8	54.2	30.9	–	92.2	52	52.3	> 100	> 100	> 100	68.9
N=C(N)c1ccc(C(NC(=O)CNS(=O)(=O)c2ccc3ccccc3c2)P(=O)(Oc2ccccc2)Oc2ccccc2)cc1 (configuration not stated)	> 100	> 100	> 100	> 100	> 100	66.2	> 100	> 100	–	> 100	–
O=c1[nH]nc(-c2ccccc2)c2[nH]c3c4ccccc4ccc3c12	> 100	> 100	> 100	> 100	–	–	> 100	> 100	–	> 100	> 100
COCN(CCC1=CCCCC1)C(=O)OC	> 100	–	> 100	> 100	> 100	> 100	> 100	> 100	> 100	> 100	> 100
C[C@]12CCC(=O)O[C@H]1CCCCO2	> 100	> 100	> 100	> 100	> 100	–	> 100	> 100	> 100	> 100	> 100
CC(=O)OCC12C(=O)C[C@@H](C)C3(CC(c4ccoc4)OC3=O)C1CCC(OC(C)=O)C21CO1 (some centres not stated)	–	> 100	> 100	> 100	> 100	> 100	> 100	> 100	> 100	> 100	> 100
Cc1c(S(=O)(=O)/N=C(\NO)Nc2ccc(Cl)c(Cl)c2)sc2ccc(Cl)cc12	–	77.3	31.5	49.9	41.7	34	44.1	36.7	34.4	> 100	38.2
O=C1C(CN2CCCCC2)CCC1CN1CCCCC1 (configuration not stated)	> 100	–	> 69.3	> 73.2	64.2	34	32	> 57.6	37	16	29.2
COC(CNC(=O)C(C)NC(=O)CCc1ccccc1)OC (configuration not stated)	> 100	> 100	> 100	> 100	> 100	> 100	> 100	> 100	> 100	> 100	–
O=C1CCC(c2ccc(Cl)cc2)=NN1c1nsc2ccccc12	–	46.3	–	> 100	–	–	–	–	> 100	> 100	–
OCC(O)COCn1nncc1Cn1ncc2c(SCc3ccccc3)ncnc21 (configuration not stated)	> 100	–	> 100	> 100	> 100	> 100	> 100	> 100	> 100	> 100	> 100
